Experimental data published in ChEMBL document CHEMBL1201862, “PubChem BioAssay data set” (2004).
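Briefly, cells in 96-well plates were exposed to five compound concentrations for 48 h, and endpoints were estimated by linear interpolation. GI50 is the concentration that inhibits growth by half.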 The source made the active and inactive calls. No stated cut-off is given here; in the data, active = GI50 up to about 1.1 µM and inactive = higher.

Columns and labels:
Assay in all cases: NCI tumour cell line growth inhibition, 48 h
M14 = tested on: M14
NCI/ADR-RES = tested on: NCI/ADR-RES
HOP-92 = tested on: HOP-92
U-251 = tested on: U-251
SN12C = tested on: SN12C
SR = tested on: SR
Hs-578T = tested on: Hs-578T
HL-60 = tested on: HL-60
SF-268 = tested on: SF-268
SK-MEL-28 = tested on: SK-MEL-28
CCRF-CEM = tested on: CCRF-CEM
UACC-257 = tested on: UACC-257
MDA-MB-435 = tested on: MDA-MB-435
OVCAR-4 = tested on: OVCAR-4
OVCAR-5 = tested on: OVCAR-5
A549 = tested on: A549
KM12 = tested on: KM12
SK-MEL-5 = tested on: SK-MEL-5
786-0 = tested on: 786-0
NCI-H23 = tested on: NCI-H23
OVCAR-3 = tested on: OVCAR-3
IGROV-1 = tested on: IGROV-1
RPMI-8226 = tested on: RPMI-8226
LOX IMVI = tested on: LOX IMVI
SNB-19 = tested on: SNB-19
NCI-H460 = tested on: NCI-H460
MDA-MB-231 = tested on: MDA-MB-231
NCI-H226 = tested on: NCI-H226
SK-MEL-2 = tested on: SK-MEL-2
OVCAR-8 = tested on: OVCAR-8
PC-3 = tested on: PC-3
SF-539 = tested on: SF-539
MOLT-4 = tested on: MOLT-4
NCI-H522 = tested on: NCI-H522
SNB-75 = tested on: SNB-75
A498 = tested on: A498
DU-145 = tested on: DU-145
MCF7 = tested on: MCF7
RXF 393 = tested on: RXF 393
HCT-116 = tested on: HCT-116
MDA-N = tested on: MDA-N
UACC-62 = tested on: UACC-62
ACHN = tested on: ACHN
EKVX = tested on: EKVX
HCT-15 = tested on: HCT-15
UO-31 = tested on: UO-31
CAKI-1 = tested on: CAKI-1
COLO 205 = tested on: COLO 205
SW-620 = tested on: SW-620
TK-10 = tested on: TK-10
SF-295 = tested on: SF-295
HT-29 = tested on: HT-29
HOP-62 = tested on: HOP-62
HCC 2998 = tested on: HCC 2998
Malme-3M = tested on: Malme-3M
T47D = tested on: T47D
SK-OV-3 = tested on: SK-OV-3
K562 = tested on: K562

Measured: GI50

Clc1cc(-c2csc(Cl)c2)cs1
> 100 µM: HCT-15
inactive: M14 > 100 µM | NCI/ADR-RES > 100 µM | HOP-92 > 100 µM | U-251 > 100 µM | SN12C > 100 µM | SR > 100 µM | Hs-578T > 100 µM | HL-60 > 100 µM | SF-268 > 100 µM | SK-MEL-28 > 100 µM | CCRF-CEM > 100 µM | UACC-257 > 100 µM | MDA-MB-435 > 100 µM | OVCAR-4 > 100 µM | OVCAR-5 > 100 µM | A549 > 100 µM | KM12 > 100 µM | SK-MEL-5 > 100 µM | 786-0 > 100 µM | NCI-H23 > 100 µM | OVCAR-3 > 100 µM | IGROV-1 > 100 µM | RPMI-8226 > 100 µM | LOX IMVI > 100 µM | SNB-19 > 100 µM | NCI-H460 > 100 µM | MDA-MB-231 > 100 µM | NCI-H226 > 100 µM | SK-MEL-2 > 100 µM | OVCAR-8 > 100 µM | PC-3 > 100 µM | SF-539 > 100 µM | MOLT-4 > 100 µM | NCI-H522 > 100 µM | SNB-75 > 100 µM | A498 > 100 µM | DU-145 > 100 µM | MCF7 > 100 µM | RXF 393 > 100 µM | HCT-116 > 100 µM | MDA-N > 100 µM | UACC-62 > 100 µM | ACHN > 100 µM | EKVX > 100 µM | UO-31 > 100 µM | CAKI-1 > 100 µM | COLO 205 > 100 µM | SW-620 > 100 µM | TK-10 > 100 µM | SF-295 > 100 µM | HT-29 > 100 µM

CCCCCCCCCc1cc(=O)c2c(O)cc(O)cc2o1
18.8 µM: HCT-15
inactive: M14 18.1 µM | NCI/ADR-RES 17.6 µM | HOP-92 16.3 µM | U-251 28.6 µM | SN12C 22.2 µM | SR 15.2 µM | Hs-578T 16.7 µM | HOP-62 14.8 µM | HL-60 14.3 µM | SF-268 3.82 µM | SK-MEL-28 19.2 µM | HCC 2998 21.1 µM | CCRF-CEM 24.3 µM | UACC-257 19.7 µM | MDA-MB-435 18.7 µM | OVCAR-4 24.3 µM | OVCAR-5 16.6 µM | A549 18.5 µM | KM12 6.67 µM | SK-MEL-5 19.8 µM | 786-0 21.6 µM | NCI-H23 18.5 µM | OVCAR-3 15.7 µM | IGROV-1 16.5 µM | RPMI-8226 5.86 µM | LOX IMVI 21.8 µM | SNB-19 18.9 µM | NCI-H460 22.6 µM | MDA-MB-231 > 100 µM | NCI-H226 17.8 µM | SK-MEL-2 18.9 µM | OVCAR-8 20.2 µM | PC-3 18 µM | SF-539 17.3 µM | Malme-3M 16.4 µM | MOLT-4 4.91 µM | NCI-H522 15.1 µM | SNB-75 18.1 µM | A498 18.1 µM | DU-145 20.2 µM | RXF 393 15.1 µM | HCT-116 21.7 µM | MDA-N > 100 µM | ACHN 19 µM | T47D 22.2 µM | SK-OV-3 17.1 µM | EKVX 18.7 µM | K562 10.2 µM | UO-31 16.9 µM | CAKI-1 > 100 µM | COLO 205 27.2 µM | SW-620 27.9 µM | TK-10 18.8 µM | SF-295 18.7 µM | HT-29 19.1 µM

COC(=O)C1ON2C(C1C(=O)OC)C(C)(C)N(O)C2(C)C (stereo unspecified)
> 10 µM: HCT-15
inactive: M14 > 10 µM | NCI/ADR-RES > 10 µM | HOP-92 > 10 µM | U-251 > 10 µM | SN12C > 10 µM | SF-268 > 10 µM | SK-MEL-28 > 10 µM | MDA-MB-435 > 10 µM | OVCAR-4 > 10 µM | OVCAR-5 > 10 µM | A549 > 10 µM | KM12 > 10 µM | SK-MEL-5 > 10 µM | NCI-H23 > 10 µM | OVCAR-3 > 10 µM | IGROV-1 > 10 µM | SNB-19 > 10 µM | MDA-MB-231 > 10 µM | NCI-H226 > 10 µM | OVCAR-8 > 10 µM | PC-3 > 10 µM | SF-539 > 10 µM | SNB-75 > 10 µM | DU-145 > 10 µM | RXF 393 > 10 µM | HCT-116 > 10 µM | MDA-N > 10 µM | ACHN > 10 µM | EKVX > 10 µM | CAKI-1 > 10 µM | COLO 205 > 10 µM | SW-620 > 10 µM | TK-10 > 10 µM | SF-295 > 10 µM | HT-29 > 10 µM

O=C(CP(=O)(c1ccccc1)c1ccccc1)c1cccc(C(=O)CP(=O)(c2ccccc2)c2ccccc2)c1
> 100 µM: HCT-15
inactive: M14 > 100 µM | NCI/ADR-RES > 100 µM | U-251 > 10 µM | SN12C > 100 µM | SR > 100 µM | Hs-578T 25.6 µM | HOP-62 34.4 µM | HL-60 > 100 µM | SF-268 30.2 µM | SK-MEL-28 > 100 µM | HCC 2998 > 100 µM | CCRF-CEM > 100 µM | UACC-257 > 100 µM | MDA-MB-435 > 100 µM | OVCAR-4 > 100 µM | OVCAR-5 58.6 µM | A549 > 100 µM | KM12 > 100 µM | SK-MEL-5 > 100 µM | 786-0 37.8 µM | IGROV-1 55.2 µM | RPMI-8226 > 100 µM | SNB-19 29.2 µM | NCI-H460 > 100 µM | MDA-MB-231 > 100 µM | NCI-H226 95.1 µM | SK-MEL-2 49.9 µM | OVCAR-8 43.1 µM | PC-3 > 100 µM | SF-539 29.7 µM | MOLT-4 > 100 µM | SNB-75 20.4 µM | DU-145 > 100 µM | MCF7 98.6 µM | RXF 393 24.7 µM | HCT-116 48.9 µM | UACC-62 > 100 µM | ACHN > 100 µM | T47D 76 µM | SK-OV-3 23.3 µM | EKVX 56.8 µM | K562 > 100 µM | UO-31 20.3 µM | CAKI-1 > 100 µM | COLO 205 > 100 µM | SW-620 > 100 µM | TK-10 48.6 µM | SF-295 14.6 µM | HT-29 > 100 µM

CC(C)CC(NC(=O)C(C)(CI)Cc1ccccc1)C(=O)Nc1ccccc1 (stereo unspecified)
inactive: M14 > 100 µM | NCI/ADR-RES > 100 µM | HOP-92 > 100 µM | U-251 > 100 µM | SN12C > 100 µM | SR 22.1 µM | HL-60 33.2 µM | HCC 2998 > 100 µM | CCRF-CEM > 100 µM | UACC-257 > 100 µM | MDA-MB-435 > 100 µM | OVCAR-4 > 100 µM | OVCAR-5 > 100 µM | A549 > 100 µM | KM12 > 100 µM | SK-MEL-5 > 100 µM | 786-0 > 100 µM | NCI-H23 > 100 µM | OVCAR-3 > 100 µM | IGROV-1 > 100 µM | RPMI-8226 > 100 µM | LOX IMVI > 100 µM | SNB-19 > 100 µM | NCI-H460 > 100 µM | MDA-MB-231 > 100 µM | NCI-H226 > 100 µM | SK-MEL-2 > 100 µM | OVCAR-8 > 100 µM | PC-3 > 100 µM | SF-539 > 100 µM | Malme-3M > 100 µM | MOLT-4 56.1 µM | NCI-H522 > 100 µM | SNB-75 86.5 µM | A498 > 100 µM | DU-145 > 100 µM | MCF7 > 100 µM | RXF 393 > 100 µM | HCT-116 31 µM | MDA-N > 100 µM | UACC-62 > 100 µM | ACHN > 100 µM | SK-OV-3 > 100 µM | EKVX > 100 µM | K562 > 100 µM | UO-31 > 100 µM | CAKI-1 > 100 µM | COLO 205 > 100 µM | SW-620 > 100 µM | TK-10 > 100 µM | SF-295 > 100 µM
> 100 µM: HCT-15
